Measured values from patent US20080167277A1, “METHODS OF TREATING SKIN DISORDERS WITH CAFFEIC ACID ANALOGS” (priority 2006, published 2008).

Tested on: psoriasis
Test: Topical dosage form of CAPE in petroleum jelly for treating psoriasis
Assay type: in vivo
Conditions: 10.0 weight percent in petroleum jelly
Excerpt: In some embodiments, the topical dosage forms may contain 0.5 weight percent to 20.0 weight percent of the compounds described herein. […] The weight percent of the compounds described herein within the topical dosage forms may range from 1.0 weight percent to 15.0 weight percent or 5.0 weight percent to 11.0 weight percent. Treatment regimes with the topical dosage forms may occur daily, twice daily, three times daily or four times daily for durations, for example, of three weeks or four weeks or until symptoms are no longer present.

## O=C(/C=C/c1ccc(O)c(O)c1)OCCc1ccccc1 [CAPE, caffeic acid phenethyl ester]
  effectiveness for treating psoriasis: effective
